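Cells were grown in 96-well plates and exposed to each compound for 48 hours at five concentrations; endpoints were interpolated linearly between bracketing concentrations, or set to the highest concentration if not reached. The concentration for 50% growth inhibition is given as GI50. TGI denotes the concentration required for complete inhibition of growth.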
How the values were obtained:
Experiment in all cases: NCI tumour cell line growth inhibition, 48 h
BT-549 breast = test system: BT-549 breast
HS 578T breast = test system: HS 578T breast
MCF7 breast = test system: MCF7 breast
MDA-MB-435 = test system: MDA-MB-435
NCI/ADR-RES ovarian = test system: NCI/ADR-RES ovarian
HOP-18 NSCLC = test system: HOP-18 NSCLC
RXF-631 renal = test system: RXF-631 renal
XF 498 CNS = test system: XF 498 CNS
MDA-N = test system: MDA-N

| Structure (SMILES) | GI50 (BT-549 breast) | TGI (BT-549 breast) | GI50 (HS 578T breast) | TGI (HS 578T breast) | GI50 (MCF7 breast) | TGI (MCF7 breast) | GI50 (MDA-MB-435) | TGI (MDA-MB-435) | GI50 (NCI/ADR-RES ovarian) | TGI (NCI/ADR-RES ovarian) | TGI (HOP-18 NSCLC) | TGI (RXF-631 renal) | TGI (XF 498 CNS) | TGI (MDA-N) |
| --- | --- | --- | --- | --- | --- | --- | --- | --- | --- | --- | --- | --- | --- | --- |
| COc1cccc(C2C3=C(COC3=O)N(CCO)c3cc4c(cc32)CCC4)c1 (configuration not stated) | 0.0819 µM | 1.19 µM | 0.0285 µM | 32.4 µM | 0.0193 µM | > 18.1 µM | 0.0131 µM | 0.0334 µM | 0.0556 µM | 0.23 µM | – | – | – | – |
| O=C1/C(=C\c2ccccc2)CN(C(=O)c2ccccc2F)C/C1=C\c1ccccc1 | 1.86 µM | 3.58 µM | 2.48 µM | 7.13 µM | 0.449 µM | 2.07 µM | 1.13 µM | 3.32 µM | 3.3 µM | 19.4 µM | – | – | – | – |
| COc1ccccc1NS(=O)(=O)c1cc(C(C)(C)C)ccc1OCCOc1ccc(C(C)(C)C)cc1S(=O)(=O)Nc1ccccc1OC | – | – | – | – | – | – | – | – | – | – | > 100 µM | – | – | – |
| COc1ccc(C=O)c(N(C)C(=O)C(C)(C)C)c1 | – | – | – | – | – | – | – | – | – | – | > 100 µM | > 100 µM | > 100 µM | – |
| COc1cc2nc(-c3ccc(Cl)cc3)cc(OCCCN3CCC(O)CC3)c2cc1OC | 2.79 µM | 13.3 µM | 1.91 µM | 6.65 µM | 1.6 µM | 3.79 µM | 2.05 µM | 5.2 µM | 0.925 µM | 14.8 µM | – | – | – | – |
| NC(=NCc1ccccc1)N/N=C\c1ccnc2ccccc12 | – | 18.6 µM | – | 49.4 µM | – | 25.5 µM | – | 23.9 µM | – | 35.6 µM | – | – | – | 26.6 µM |
| CC(=O)NNc1nc(C)c(C(/C=C/c2ccc3c(c2)OCO3)=N/NC(=O)c2ccncc2)s1 | – | > 100 µM | – | > 100 µM | – | > 100 µM | – | > 100 µM | – | > 100 µM | – | – | – | > 100 µM |
| COC(=O)Oc1nn(C(=O)OC)c(=O)c2ccccc12 (tested in a mixture with another compound) | – | – | – | > 100 µM | – | > 100 µM | – | > 100 µM | – | > 100 µM | – | – | – | > 100 µM |
| COC(=O)C12C3C=CC(O3)C1C1C=CC2O1 (configuration not stated) | – | – | – | – | – | – | – | – | – | – | > 100 µM | – | > 100 µM | – |
| CC1OC(OC2C(OC3CCC4(C)C(CCC5(C)C4CC=C4C6CC(C)(C)CCC6(CO)C(O)CC45C)C3(C)C)OC(C(=O)O)C(OC3OC(COC4OC(CO)C(O)C(O)C4O)C(O)C(O)C3O)C2O)C(O)C(O)C1O (configuration not stated) | 1.15 µM | 2.49 µM | 13.1 µM | 34.6 µM | 11.4 µM | 24.2 µM | 4.34 µM | 14.7 µM | 11.5 µM | 23.6 µM | – | – | – | – |
| COc1cc(-c2cn(-c3ccc(Cl)cc3)c(=O)n2-c2ccccc2)cc(OC)c1OC | > 92.1 µM | > 100 µM | > 50.5 µM | 97.1 µM | > 53.5 µM | > 100 µM | > 100 µM | > 100 µM | > 92.9 µM | > 100 µM | – | – | – | – |
| CC1=C(C(=O)Nc2cc(F)c(F)cc2F)C(c2cccc([N+](=O)[O-])c2)C(C(=O)Nc2ccccc2C(F)(F)F)=C(C)N1 (configuration not stated) | – | – | – | – | – | – | – | – | – | – | – | 49.3 µM | – | – |
| O=[N+]([O-])c1ccc(N=Nc2c(O)[nH]c3ccc(Br)cc23)c([N+](=O)[O-])c1 | – | – | – | – | – | – | – | – | – | – | 4.69 µM | – | – | – |
| Fc1cccc(C=NC23CC4CC(CC(C4)C2)C3)c1 | – | – | – | – | – | – | – | – | – | – | > 100 µM | – | > 100 µM | – |

— PubChem BioAssay (NCI)
